# Ends that are not written are not given here.
# Tests used:
# GST-S6K11-365 = GST-S6K11-365 (Rattus norvegicus, UniProt P67999); test: Global amide hydrogen exchange (HXMS); set-up: made in house; conditions: early time points; peptide 150 molar excess
# From the text: (A) Effect of S6K1 tail peptides, described in the legend to FIG. 13, on global deuteron uptake by purified GST-56K11-365. (B) Kinase activity of wt and mutant GST-PKCζ. (C) Global deuteron uptake by wt and mutant GST-PKCζ. (D) Local deuteron uptake by wt and mutant GST-PKCζ. In the PKCζ model, peptides showing strong and no-or-slight protection by the tail phosphate are shown in pink and grey, respectively. The panels show HX curves of the peptides. Experiments were repeated 2 times (A, C, D) or 3 times (B) and data are means±range (A, C) or ±SD (B)
# Amide hydrogen (^1H/^2H) exchange monitored by mass spectrometry (HXMS). D2O (99.9 atom % D) was obtained from Cambridge Isotope Laboratories. Isotopic exchange was initiated by diluting 8 μl 20-40 μM protein in 300 μl deuterated buffer (25 mM Tris, 150 mM NaCl, 1 mM dithiothreitol, 10 mM MgCl2, 25 mM glutathione, pD 7.1 uncorrected value). The exchange was carried out at 30° C., and 75 μl aliquots were collected after 1 min, 5 min, 15 min, and 45 min. […]
# The LC setup was described previously (Jorgensen et al., 2004), with the modification that proteins were desalted for 5 min and eluted with a 9 min linear gradient (14% to 70% acetonitrile, 0.05% TFA) to separate the free GST from the GST-tagged kinases of interest in the global hydrogen exchange analysis. […] The HXMS data on peptide level were analyzed by HX-Express (Weis et al., 2006). […]
# PKA = target: T1, PKA (Homo sapiens, UniProt P17612); test: AGC kinase panel activity assay (Kemptide); assay type: biochemical; conditions: for PKA (%) activity: 1% DMSO = 100%
# T1 construct: purchased Sigma
# Method: (§1) Protein kinase activity tests were performed essentially as previously described (Balendran et al., 2000; Biondi et al., 2000; Biondi et al., 2001). Substrates used were either MBP (for PKCζ or polypeptides (Crosstide for PKB, S6K, SGK and PRK2; T308tide for PDK1, and Kemptide for PKA). PKA (Sigma) was measured in the presence of 100 μM cAMP. Alternatively, assays were performed in a 96 well format, aliquots spotted on p81 phosphocellulose papers (Whatmann), washed in 0.01% phosphoric acid, dried, and then exposed and analysed using Phospholmager technology (Storm, Molecular Dynamics). Activity measurements were performed in duplicates with less than 10% difference between duplicate pairs. Experiments were repeated at least twice, although most of the experiments were repeated multiple times, with similar results.
# Activity assays for each kinase were performed as described in Materials and Methods in the presence of 1% DMSO (100%). Except PKA, all protein kinases were produced as a GST-fusion. S6K1, PKBα, SGK mutants used were S6K1-T2-[Thr412Glu], PKBa[Ser473Asp] and ΔN-SGK[Ser422Asp].
# PDK1 [Thr226Trp] = target: T2, PDK1 [Thr226Trp] (Homo sapiens, UniProt O15530, T226W); test: PDK1 activity assay with T308tide; assay type: biochemical; conditions: catalytic domain 50-360
# T2 construct: the catalytic domain of PDK1 (50-359) produced in SF9 insect cells; His-tag (N, cleaved yes); made in house; host or cells: insect cells (baculovirus)
# Method: (§2) FIG. 6—A mutation at Thr226 in PDK1 uncouples the ligand binding to the HM/PIF-pocket from activation of the kinase. The catalytic domain (CD) of PDK1 50-360 and its mutants Phe224Trp and Thr226Trp were expressed in insect cells and purified. (A) PDK1 activity was measured in the presence or absence of the HM-polypeptide PIFtide or compound 1 using T308tide as a substrate. PDK1 CD wt and PDK1 [Phe224Trp] were activated by PIFtide and compound 1 whereas PDK1 CD [Thr226Trp] mutant was not activated. (B,C,D,E) PDK1 [Phe224Trp] and PDK1 [Thr226Trp] retain significant binding to P-HM polypeptides and PIFtide. Surface plasmon resonance measurements were carried out on a BiaCore system to evaluate the binding affinities of PDK1 CD wt, PDK1 [Phe224Trp] and PDK1 [Thr226Trp] to HM-polypeptides. Biotin-P-HM-polypeptide derived from S6K1 was immobilized on a streptavidin-coated sensor chip and the specific interaction with PDK1 was recorded. (B) The direct binding of PDK1 CD wt to biotin-P-HM-S6K was recorded at the indicated concentrations of PDK1 CD. The Kd (0.05 μM) was estimated based on the response units obtained at each concentration at equilibrium (insert).
# as §1
# (§3) PDK1 activity assay was performed in a 20 μl mix containing 50 mM Tris-HCl pH 7.5, 0.05 mg/ml BSA, 0.1% β-mercaptoethanol, 10 mM MgCl2, 100 μM [γ^32P]ATP (5-50 cpm/pmol), 0.003% Brij, 150 ng PDK1, and T308tide (from 0.05 to 1 mM). PDK1 specific activity was approximately 5 U/mg (when measured at 1 mM T308tide). The effect of small compounds on PDK1 was repeated with proteins from different purification batches and with different protein constructs, comprising the full length protein or the catalytic domain alone, with similar results. […] This variability may be due to the PIFtide/compound-stimulated autophosphorylation of the activation loop in certain preparations having less than a 1:1 molar phosphorylation stoichiometry at this site.
# PDK1 [Phe224Trp] = target: T3, PDK1 [Phe224Trp] (Homo sapiens, UniProt O15530, F224W); test: PDK1 activity assay with T308tide; assay type: biochemical; conditions: catalytic domain 50-360
# T3 construct: the catalytic domain of PDK1 (50-359) produced in SF9 insect cells; His-tag (N, cleaved yes); made in house; host or cells: insect cells (baculovirus)
# Method: as §2, §1, §3
# T2 sequence (O15530 50-359 T226W): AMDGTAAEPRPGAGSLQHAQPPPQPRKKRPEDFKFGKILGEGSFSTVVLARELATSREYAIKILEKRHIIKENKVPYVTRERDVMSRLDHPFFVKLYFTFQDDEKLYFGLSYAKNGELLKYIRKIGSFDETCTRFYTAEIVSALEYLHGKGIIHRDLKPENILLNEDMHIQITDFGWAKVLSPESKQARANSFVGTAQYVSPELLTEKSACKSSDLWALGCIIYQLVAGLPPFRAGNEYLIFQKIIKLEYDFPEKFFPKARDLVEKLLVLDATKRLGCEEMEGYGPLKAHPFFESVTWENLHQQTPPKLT
# Chain of GST-S6K11-365 (P67999 24-388): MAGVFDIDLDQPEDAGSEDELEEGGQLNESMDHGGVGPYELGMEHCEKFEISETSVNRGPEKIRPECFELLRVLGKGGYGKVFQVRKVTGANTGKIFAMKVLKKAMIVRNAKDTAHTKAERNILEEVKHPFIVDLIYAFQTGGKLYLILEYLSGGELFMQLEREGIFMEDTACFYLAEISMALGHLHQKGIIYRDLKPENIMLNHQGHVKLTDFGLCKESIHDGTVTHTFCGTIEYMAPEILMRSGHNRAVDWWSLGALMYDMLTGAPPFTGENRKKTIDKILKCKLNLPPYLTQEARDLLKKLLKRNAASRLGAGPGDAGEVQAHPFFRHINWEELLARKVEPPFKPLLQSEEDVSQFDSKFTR
# T3 sequence (O15530 50-359 F224W): as the sequence (O15530 50-359 T226W) above, with F175W, W177T counted along it
fewer deuterons incorporated in S6K11-365 versus no peptide (GST-S6K11-365),effect on PKA activity (in words) (PKA; 20 μM),PKA (%) activity (PKA; 20 μM compound),PKA (%) activity (PKA; 200 μM compound),activation of PDK1 [Thr226Trp] (in words) (PDK1 [Thr226Trp]),activation of PDK1 [Phe224Trp] (in words) (PDK1 [Phe224Trp]),Compound
,,109%,103%,,,COC(=O)CSC(CC(=O)c1ccc(Cl)cc1)c1ccccc1 (centres unmarked) [Compound 2]
,,,,not activated,activated,"REPRILSEEEQEMFRDFDYIADWC [PIFtide, reference compound]"

# Further lines, the compound ahead of its results:
Compound,fewer deuterons incorporated in S6K11-365 versus no peptide (GST-S6K11-365),effect on PKA activity (in words) (PKA; 20 μM),PKA (%) activity (PKA; 20 μM compound),PKA (%) activity (PKA; 200 μM compound),activation of PDK1 [Thr226Trp] (in words) (PDK1 [Thr226Trp]),activation of PDK1 [Phe224Trp] (in words) (PDK1 [Phe224Trp])
S371/pT389: synthetic S6K1 tail peptide (residues 366-395) phosphorylated in the HM,≈ 10 deuterons,,,,,
O=C(O)CSC(CC(=O)c1ccc(Cl)cc1)c1ccccc1 (centres unmarked) [Compound 1],,no significant effect,100%,94%,not activated,activated
"S371/T389: synthetic S6K1 tail peptide (residues 366-395), non-phosphorylated",no effect,,,,,
